The source made the active and inactive calls.
Assays:
[1] = molecular target: Tyrosine-protein phosphatase non-receptor type 11 (Homo sapiens, UniProt Q06124); assay: PTPN11 enzyme inhibitors – biochemical, selectivity assay for STEP inhibitor project, dose response (AID 602367); assay type: functional; details: read-out: IC50_Mean
[2] = molecular target: T1, Heat shock factor protein 1 (Mus musculus, UniProt P38532); assay: enhancement of HSF1-driven luciferase signal – cell-based, NIH3T3, luminescence, dose retest, confirmation (AID 435004); assay type: functional;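 note: stress induced by proteasome inhibitor MG132 added 30 min after compound; luciferase reporter driven by HSF1 response element in NIH3T3 cells; actives raise luminescence as potentiators of the MG132 stress response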
T1 sequence (P38532 whole entry): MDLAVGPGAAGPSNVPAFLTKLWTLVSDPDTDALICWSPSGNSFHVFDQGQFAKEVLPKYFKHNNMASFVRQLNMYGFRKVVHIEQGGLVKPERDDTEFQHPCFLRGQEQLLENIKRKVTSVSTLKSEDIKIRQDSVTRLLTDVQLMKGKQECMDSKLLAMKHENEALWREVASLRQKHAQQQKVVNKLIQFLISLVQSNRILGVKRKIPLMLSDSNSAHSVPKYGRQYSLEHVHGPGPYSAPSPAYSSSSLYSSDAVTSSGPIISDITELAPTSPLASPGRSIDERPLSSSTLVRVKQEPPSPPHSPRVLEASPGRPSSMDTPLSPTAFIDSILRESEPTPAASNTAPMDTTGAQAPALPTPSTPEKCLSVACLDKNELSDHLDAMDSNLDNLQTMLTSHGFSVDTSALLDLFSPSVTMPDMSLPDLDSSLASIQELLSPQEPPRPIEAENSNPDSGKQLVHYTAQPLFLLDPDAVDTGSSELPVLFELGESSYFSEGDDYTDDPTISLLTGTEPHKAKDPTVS

[3] = molecular target: Dual specificity protein phosphatase 3 (Homo sapiens, UniProt P51452); assay: VHR phosphatase inhibition, dose response, selectivity assay for STEP inhibitor project, biochemical (AID 602374); assay type: functional; details: read-out: IC50_Mean
[4] = molecular target: Beta-adrenergic receptor kinase 1 (Homo sapiens, UniProt P25098); assay: aptamer displacement from bead-bound GRK2 – biochemical, cherry pick 1, bead flow cytometry, dose response (AID 504500)
[5] = molecular target: Tyrosine-protein phosphatase non-receptor type 5 (Homo sapiens, UniProt P54829); assay: PTPN5 enzyme inhibition – biochemical, fluorescence intensity, uHTS hits, confirmation (AID 602372); assay type: functional; details: read-out: IC50_Mean
[6] = non-specific 3'UTR reporter inhibition in Clone20-Shn3RL – cell-based, Renilla luciferase, cherry-picked, counter-screen for Shn3 inhibitor project, dose response (AID 624133); assay type: functional
INS1 = assay: INS-1E survival protection against cytokine death – cell-based, luminescence, retest, dose response (AID 449756); assay type: functional; details: Rattus norvegicus;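 note: cell death triggered by IL-1 beta plus TNF-alpha plus IFN-gamma mixture; protective hits raise ATP signal compared with cytokine alone wells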
HEK293 = assay: EBV LMP1 TES2 canonical NF-kB signalling blockers – cell-based, HEK293, luciferase, cherry-pick, dose response (AID 588343); assay type: functional, Homo sapiens; details: Homo sapiens, HEK293
BJ [7] = assay: cells; assay type: functional, cell-based; details: Homo sapiens
BJ [8] = assay: BJ-TERT-LT-ST fibroblast viability loss – cell-based, RAS-independent, luminescence, dose response (AID 1935); assay type: functional; details: Homo sapiens;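 note: BJ fibroblasts immortalized with TERT plus LT and ST oncogenes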
[9] = molecular target: T2, Latent membrane protein 1 (Human herpesvirus 4 (strain B95-8), UniProt P03230); assay: LMP1 TES1 pathway selectivity over dsRED control – imaging, HEK293T, dual-color eGFP/dsRED, cherry-picks, selectivity assay for LMP1 NF-kB inhibitor project, dose response (AID 588398); assay type: functional, cell-based
T2 sequence (P03230 whole entry): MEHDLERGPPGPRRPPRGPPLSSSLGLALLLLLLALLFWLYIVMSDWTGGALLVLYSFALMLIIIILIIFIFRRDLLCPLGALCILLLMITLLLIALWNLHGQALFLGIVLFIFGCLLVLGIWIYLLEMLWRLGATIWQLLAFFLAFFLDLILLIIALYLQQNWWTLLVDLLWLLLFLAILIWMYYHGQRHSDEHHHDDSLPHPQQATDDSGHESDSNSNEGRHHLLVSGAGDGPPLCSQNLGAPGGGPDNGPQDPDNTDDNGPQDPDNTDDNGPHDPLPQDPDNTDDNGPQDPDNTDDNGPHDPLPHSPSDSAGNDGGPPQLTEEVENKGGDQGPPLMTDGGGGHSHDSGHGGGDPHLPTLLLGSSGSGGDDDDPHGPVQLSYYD

cells [10] = assay type: functional, cell-based
[11] = NIH-3T3 fibroblast cytotoxicity, dose response, cytotoxicity control, cell-based, fluorescence, Alamar Blue, secondary assay (AID 2327); assay type: functional;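 note: NIH-3T3 mouse fibroblasts cultured with fluconazole at 8 µg/mL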
Exodeoxyribonuclease V = Exodeoxyribonuclease V (Escherichia coli (strain K12), UniProt P04993+P07648+P08394); assay: RecBCD inhibition via phage-restricted bacterial growth – absorbance, V66 E. coli, mutant T4 phage, counter-screen for AddAB inhibitor project, dose response (AID 492957); assay type: functional, cell-based, Escherichia coli str. K-12 substr. MG1655
[12] = molecular target: ATP-dependent molecular chaperone HSP82 (Candida albicans (strain WO-1) (Yeast), UniProt C4YTQ8); assay: steroid-induced GRE reporter decrease in yeast – S. cerevisiae, luminescence, Hsp90 inhibitor project, dose response (AID 2400); assay type: functional, cell-based;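 note: beta-galactosidase luminescence from glucocorticoid response element reporter as proxy for Hsp90 function; inhibitor potency where signal loss means Hsp90 inhibition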
[13] = fluconazole-exposed Candida albicans growth modulators – fluorescence, retest, confirmation (AID 2467); assay type: functional, cell-based
BJ [14] = assay: BJ-TERT fibroblast viability loss – cell-based, RAS-independent, luminescence, dose response (AID 1933); assay type: functional; details: Homo sapiens
[15] = Counterscreen for AddAB inhibitors: absorbance-based bacterial cell-based high throughput dose response assay for inhibitors of bacterial viability. [Related pubchem assays (depositor defined):AID435030, AID449728, AID449731, AID488942, AID488955, AID488956]; assay type: functional
[16] = loss of viability in HepG2 cells – cell-based, CellTiter-Glo, cherry-picked, cytotoxicity control for Shn3 inhibitor project, dose response (AID 624134); assay type: functional
cells [17] = assay type: functional, cell-based; remark: listed apart in the source
[18] = DRD fibroblast viability loss – cell-based, non-viral oncogenic, luminescence, dose response (AID 1934); assay type: functional; details: Homo sapiens
[19] = molecular target: Serine/threonine-protein phosphatase (Candida dubliniensis (strain CD36 / CBS 7987 / NCPF 3949 / NRRLY-17841) (Yeast), UniProt B9W6M3); assay: blockers of CaCl2-induced CDRE-lacZ signaling – S. cerevisiae, luminescence, secondary, dose response (AID 2388); assay type: functional, cell-based;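 note: yeast reporter cells carrying a calcineurin-responsive lacZ construct stimulated with calcium chloride; luminescent beta-galactosidase reporter signal in whole cells rather than isolated phosphatase activity; potency for inhibition where a drop in reporter signal means calcineurin blockade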
[20] = reduction of Shn3 3'UTR-driven luciferase in osteoblasts – cell-based, Clone20 osteoblasts, firefly luciferase, cherry-picked, dose response (AID 624132); assay type: functional;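 note: firefly luciferase luminescence from reporter carrying the Shn3 3'UTR in osteoblasts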
[21] = molecular target: T3, Zinc finger protein mex-5 (Caenorhabditis elegans, UniProt Q9XUB2); assay: potency of MEX-5 RNA-binding blockers – biochemical, C. elegans, fluorescence polarization, dose response (AID 1960)
T3 sequence (Q9XUB2 whole entry): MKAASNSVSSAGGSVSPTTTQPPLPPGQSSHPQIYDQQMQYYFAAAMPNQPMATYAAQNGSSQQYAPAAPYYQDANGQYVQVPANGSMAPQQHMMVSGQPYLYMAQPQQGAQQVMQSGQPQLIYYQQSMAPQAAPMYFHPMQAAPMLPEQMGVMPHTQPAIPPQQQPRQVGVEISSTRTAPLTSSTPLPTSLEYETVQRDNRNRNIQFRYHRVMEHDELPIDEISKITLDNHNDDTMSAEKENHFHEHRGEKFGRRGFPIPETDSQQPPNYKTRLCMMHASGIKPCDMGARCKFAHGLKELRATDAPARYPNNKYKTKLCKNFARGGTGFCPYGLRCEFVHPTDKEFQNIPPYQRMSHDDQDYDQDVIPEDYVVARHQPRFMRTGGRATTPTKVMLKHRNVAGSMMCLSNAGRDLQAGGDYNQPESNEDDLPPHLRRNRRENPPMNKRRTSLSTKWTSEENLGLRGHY

[22] = molecular target: T4, Endoribonuclease toxin MazF (Escherichia coli K-12, UniProt P0AE70); assay: activation of MazEF endoribonuclease cleavage – biochemical, fluorescence, single-stranded RNA substrate, uHTS hits, dose response (AID 588481); assay type: functional
[23] = molecular target: T4, Endoribonuclease toxin MazF; assay: substrate-only fluorescence increase artefacts – biochemical, single-stranded RNase substrate, counter-screen for MazEF activator project, dose response (AID 588502); assay type: functional
[24] = molecular target: T5, RNA-binding protein pos-1 (Caenorhabditis elegans, UniProt G5EF15); assay: disruptors of C. elegans POS-1 RNA interaction – biochemical, fluorescence polarization, dose response (AID 1964);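 note: purified POS-1 fused to maltose binding protein made in E. coli; potency of compounds blocking POS-1 binding to fluorescent RNA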
T5 sequence (G5EF15 whole entry): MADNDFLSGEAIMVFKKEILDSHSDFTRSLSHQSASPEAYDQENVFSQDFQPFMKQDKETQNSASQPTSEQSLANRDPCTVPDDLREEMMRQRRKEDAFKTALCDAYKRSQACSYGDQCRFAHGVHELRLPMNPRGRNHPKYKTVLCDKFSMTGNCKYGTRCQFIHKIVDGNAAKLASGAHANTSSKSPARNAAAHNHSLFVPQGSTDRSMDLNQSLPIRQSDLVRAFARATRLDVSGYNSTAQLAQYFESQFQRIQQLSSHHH

Candida albicans [25] = assay: C. albicans growth inhibition with fluconazole – CaCi-2 strain, Alamar Blue, dry powder, set 4, dose response (AID 488943); assay type: functional, organism-based
Candida albicans [26] = assay: resistant Candida growth with fluconazole co-treatment – CaCi-8 strain, Alamar Blue, dry powder, set 2, dose response (AID 488909); assay type: functional, organism-based
Candida albicans [27] = assay: fluconazole-resistant Candida strain growth inhibitors – CaCi-8 strain, dry powder, set 4, dose response (AID 488950); assay type: functional, organism-based
Hexokinase HKDC1 = molecular target: T6, Hexokinase HKDC1 (Homo sapiens, UniProt Q2TB90); assay: SAR analysis of small molecule inhibitors of hexokinase domain containing I (HKDC1). [Related pubchem assays (depositor defined):AID493160, AID493190]; assay type: functional
T6 sequence (Q2TB90 whole entry): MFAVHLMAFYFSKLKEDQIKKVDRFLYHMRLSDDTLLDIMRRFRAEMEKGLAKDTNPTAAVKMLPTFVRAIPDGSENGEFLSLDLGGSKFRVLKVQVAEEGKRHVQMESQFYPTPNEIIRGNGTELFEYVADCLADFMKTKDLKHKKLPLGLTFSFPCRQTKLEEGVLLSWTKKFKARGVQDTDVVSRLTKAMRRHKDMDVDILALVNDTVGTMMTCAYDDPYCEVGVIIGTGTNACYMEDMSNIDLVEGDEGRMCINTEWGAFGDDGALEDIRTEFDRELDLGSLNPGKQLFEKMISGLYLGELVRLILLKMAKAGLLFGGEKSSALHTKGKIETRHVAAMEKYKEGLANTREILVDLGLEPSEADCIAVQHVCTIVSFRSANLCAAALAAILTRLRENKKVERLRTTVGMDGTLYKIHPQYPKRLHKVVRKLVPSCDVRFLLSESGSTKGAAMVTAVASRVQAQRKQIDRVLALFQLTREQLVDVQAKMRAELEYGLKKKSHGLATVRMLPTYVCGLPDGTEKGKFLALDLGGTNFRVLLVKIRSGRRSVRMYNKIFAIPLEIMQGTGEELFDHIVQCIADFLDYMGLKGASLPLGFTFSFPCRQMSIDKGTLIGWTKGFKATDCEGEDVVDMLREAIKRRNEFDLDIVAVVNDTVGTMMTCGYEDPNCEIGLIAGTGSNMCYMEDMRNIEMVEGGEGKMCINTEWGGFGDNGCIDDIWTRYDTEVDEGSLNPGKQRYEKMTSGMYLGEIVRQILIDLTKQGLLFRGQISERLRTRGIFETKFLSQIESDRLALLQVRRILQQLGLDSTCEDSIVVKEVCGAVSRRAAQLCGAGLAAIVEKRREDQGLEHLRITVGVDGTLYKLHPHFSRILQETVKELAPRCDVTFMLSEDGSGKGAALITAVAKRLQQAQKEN

Hexokinase-1 = Hexokinase-1 (Homo sapiens, UniProt P19367); assay: SAR analysis of small molecule inhibitors of hexokinase domain containing I (HKDC1) in the hexokinase 1 selectivity assay. [Related pubchem assays (depositor defined):AID493160, AID493190]; assay type: functional
Sequence of Hexokinase-1 (P19367 whole entry, the tested form may be a part): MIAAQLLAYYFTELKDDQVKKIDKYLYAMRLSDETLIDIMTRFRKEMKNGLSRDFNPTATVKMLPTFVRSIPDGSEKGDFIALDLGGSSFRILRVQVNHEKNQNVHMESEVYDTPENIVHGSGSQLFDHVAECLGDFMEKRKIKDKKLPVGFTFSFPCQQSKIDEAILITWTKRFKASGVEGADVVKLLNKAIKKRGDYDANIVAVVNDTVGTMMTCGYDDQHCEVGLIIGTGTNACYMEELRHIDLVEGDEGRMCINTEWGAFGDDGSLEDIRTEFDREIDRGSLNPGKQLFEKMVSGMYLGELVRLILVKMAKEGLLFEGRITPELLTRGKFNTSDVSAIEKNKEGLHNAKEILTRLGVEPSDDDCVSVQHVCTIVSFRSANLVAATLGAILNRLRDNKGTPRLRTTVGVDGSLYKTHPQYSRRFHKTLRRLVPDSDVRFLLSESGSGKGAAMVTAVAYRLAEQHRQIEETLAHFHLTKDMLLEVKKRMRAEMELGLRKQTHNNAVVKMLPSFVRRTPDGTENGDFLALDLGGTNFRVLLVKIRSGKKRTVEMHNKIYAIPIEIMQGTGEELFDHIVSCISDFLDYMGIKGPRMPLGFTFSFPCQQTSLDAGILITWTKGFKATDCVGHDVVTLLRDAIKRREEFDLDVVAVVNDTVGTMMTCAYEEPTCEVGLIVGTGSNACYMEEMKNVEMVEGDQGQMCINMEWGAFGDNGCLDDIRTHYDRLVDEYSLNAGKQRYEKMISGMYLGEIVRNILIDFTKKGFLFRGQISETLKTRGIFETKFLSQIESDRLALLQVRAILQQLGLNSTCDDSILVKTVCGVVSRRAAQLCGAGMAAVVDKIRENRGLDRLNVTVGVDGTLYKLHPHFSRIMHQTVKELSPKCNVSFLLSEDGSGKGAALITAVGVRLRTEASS

T4 sequence (P0AE70 whole entry): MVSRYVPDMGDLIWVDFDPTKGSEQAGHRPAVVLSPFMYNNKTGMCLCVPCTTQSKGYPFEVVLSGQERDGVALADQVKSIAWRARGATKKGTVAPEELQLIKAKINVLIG
Sequence of Tyrosine-protein phosphatase non-receptor type 11 (Q06124 whole entry): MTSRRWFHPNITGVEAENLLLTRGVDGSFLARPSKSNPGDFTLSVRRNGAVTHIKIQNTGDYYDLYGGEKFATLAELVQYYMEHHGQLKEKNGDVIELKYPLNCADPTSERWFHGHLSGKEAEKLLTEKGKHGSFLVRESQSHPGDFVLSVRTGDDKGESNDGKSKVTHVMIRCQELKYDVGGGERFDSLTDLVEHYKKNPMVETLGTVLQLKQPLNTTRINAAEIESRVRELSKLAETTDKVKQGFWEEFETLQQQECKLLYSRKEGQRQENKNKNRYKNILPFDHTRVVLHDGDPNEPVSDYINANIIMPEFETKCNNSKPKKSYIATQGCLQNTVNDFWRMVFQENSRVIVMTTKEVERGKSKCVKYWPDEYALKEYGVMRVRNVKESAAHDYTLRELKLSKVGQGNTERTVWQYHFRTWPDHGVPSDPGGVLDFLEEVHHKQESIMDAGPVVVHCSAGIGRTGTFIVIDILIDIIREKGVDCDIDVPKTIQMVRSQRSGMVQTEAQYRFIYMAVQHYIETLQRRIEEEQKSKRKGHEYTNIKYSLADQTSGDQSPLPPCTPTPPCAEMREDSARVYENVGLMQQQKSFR
Sequence of Serine/threonine-protein phosphatase (B9W6M3 whole entry): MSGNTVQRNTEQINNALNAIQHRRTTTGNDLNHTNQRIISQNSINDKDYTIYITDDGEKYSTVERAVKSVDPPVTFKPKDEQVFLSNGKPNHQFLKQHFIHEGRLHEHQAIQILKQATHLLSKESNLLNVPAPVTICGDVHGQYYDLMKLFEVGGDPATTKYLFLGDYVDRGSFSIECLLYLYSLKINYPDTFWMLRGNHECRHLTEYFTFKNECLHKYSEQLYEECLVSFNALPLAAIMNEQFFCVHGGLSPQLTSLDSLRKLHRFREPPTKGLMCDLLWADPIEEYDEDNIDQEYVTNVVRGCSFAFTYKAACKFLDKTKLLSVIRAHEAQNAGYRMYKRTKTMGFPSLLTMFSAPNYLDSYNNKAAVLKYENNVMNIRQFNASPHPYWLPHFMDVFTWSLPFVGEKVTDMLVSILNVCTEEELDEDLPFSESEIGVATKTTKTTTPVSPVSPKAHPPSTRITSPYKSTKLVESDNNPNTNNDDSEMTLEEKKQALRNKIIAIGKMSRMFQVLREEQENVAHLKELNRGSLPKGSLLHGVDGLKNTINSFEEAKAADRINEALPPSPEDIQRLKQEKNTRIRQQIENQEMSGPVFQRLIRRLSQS
Sequence of Dual specificity protein phosphatase 3 (P51452 whole entry): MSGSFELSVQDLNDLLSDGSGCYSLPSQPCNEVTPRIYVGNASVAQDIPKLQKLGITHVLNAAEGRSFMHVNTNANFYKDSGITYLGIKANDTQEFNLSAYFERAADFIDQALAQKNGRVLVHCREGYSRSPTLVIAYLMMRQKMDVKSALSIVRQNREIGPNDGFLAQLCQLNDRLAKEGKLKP
Sequence of Tyrosine-protein phosphatase non-receptor type 5 (P54829 whole entry): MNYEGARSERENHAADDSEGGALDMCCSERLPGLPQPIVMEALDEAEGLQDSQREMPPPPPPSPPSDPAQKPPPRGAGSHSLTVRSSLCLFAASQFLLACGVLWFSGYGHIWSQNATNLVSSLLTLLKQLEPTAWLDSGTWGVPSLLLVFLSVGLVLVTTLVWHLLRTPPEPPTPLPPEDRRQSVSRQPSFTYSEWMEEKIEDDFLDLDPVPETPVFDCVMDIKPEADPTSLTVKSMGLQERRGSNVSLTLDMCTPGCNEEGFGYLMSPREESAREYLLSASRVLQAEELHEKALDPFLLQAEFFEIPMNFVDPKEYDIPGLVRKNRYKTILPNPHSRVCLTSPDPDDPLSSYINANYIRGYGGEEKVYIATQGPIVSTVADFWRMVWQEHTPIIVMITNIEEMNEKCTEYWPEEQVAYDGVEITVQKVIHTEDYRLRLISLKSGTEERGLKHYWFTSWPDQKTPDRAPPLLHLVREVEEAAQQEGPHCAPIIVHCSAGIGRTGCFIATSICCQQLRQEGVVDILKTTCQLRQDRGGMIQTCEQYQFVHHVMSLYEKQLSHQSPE
Sequence of ATP-dependent molecular chaperone HSP82 (C4YTQ8 whole entry): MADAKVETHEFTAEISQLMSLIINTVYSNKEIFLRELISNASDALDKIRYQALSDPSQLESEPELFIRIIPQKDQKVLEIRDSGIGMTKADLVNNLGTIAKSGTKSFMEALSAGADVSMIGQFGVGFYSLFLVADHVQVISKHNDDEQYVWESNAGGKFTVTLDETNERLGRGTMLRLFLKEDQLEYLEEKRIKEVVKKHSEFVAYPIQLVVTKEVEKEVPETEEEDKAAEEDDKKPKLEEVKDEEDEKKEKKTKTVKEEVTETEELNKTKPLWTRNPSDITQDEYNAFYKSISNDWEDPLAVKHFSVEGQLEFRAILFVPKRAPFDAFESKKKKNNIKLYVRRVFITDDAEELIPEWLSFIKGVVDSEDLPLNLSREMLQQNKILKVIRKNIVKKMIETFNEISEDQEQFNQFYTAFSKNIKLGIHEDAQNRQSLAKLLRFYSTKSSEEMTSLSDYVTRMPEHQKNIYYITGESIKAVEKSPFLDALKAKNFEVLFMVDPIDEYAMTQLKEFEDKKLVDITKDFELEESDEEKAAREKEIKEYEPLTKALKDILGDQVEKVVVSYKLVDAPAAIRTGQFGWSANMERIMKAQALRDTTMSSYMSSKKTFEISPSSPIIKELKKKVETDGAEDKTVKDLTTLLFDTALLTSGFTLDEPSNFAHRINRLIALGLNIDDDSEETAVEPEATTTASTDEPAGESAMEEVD
Sequence of Beta-adrenergic receptor kinase 1 (P25098 whole entry): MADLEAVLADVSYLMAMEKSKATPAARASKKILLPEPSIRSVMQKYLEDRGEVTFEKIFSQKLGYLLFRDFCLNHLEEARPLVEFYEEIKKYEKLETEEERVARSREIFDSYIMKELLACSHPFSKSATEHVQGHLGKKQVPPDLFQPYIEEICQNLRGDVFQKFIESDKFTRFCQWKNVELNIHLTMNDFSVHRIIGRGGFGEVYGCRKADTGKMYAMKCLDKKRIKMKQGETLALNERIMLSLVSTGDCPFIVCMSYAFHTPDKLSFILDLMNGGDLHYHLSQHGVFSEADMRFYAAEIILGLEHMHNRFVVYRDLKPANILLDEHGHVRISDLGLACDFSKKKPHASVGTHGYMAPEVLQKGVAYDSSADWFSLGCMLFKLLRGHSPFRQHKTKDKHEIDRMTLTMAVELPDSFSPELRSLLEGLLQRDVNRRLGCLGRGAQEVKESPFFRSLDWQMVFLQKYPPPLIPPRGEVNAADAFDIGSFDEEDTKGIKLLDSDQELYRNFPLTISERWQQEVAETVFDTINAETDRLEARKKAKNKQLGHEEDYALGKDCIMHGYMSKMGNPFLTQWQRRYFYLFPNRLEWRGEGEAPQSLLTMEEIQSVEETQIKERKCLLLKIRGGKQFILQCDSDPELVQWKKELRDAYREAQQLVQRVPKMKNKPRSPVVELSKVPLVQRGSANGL

CCOC(=O)CC(NS(=O)(=O)c1ccc2ncc(C(=O)O)c(O)c2c1)c1ccc(OCC)c(OC)c1 (configuration not stated)
IC50 [1]: 1.53 µM (active) | EC50 [2]: > 260 µM (inactive) | IC50 [3]: 3 µM (active) | EC50 [4]: 3.62 µM (active) | IC50 [5]: 46.3 µM (inactive)

Oc1cccc(C(Nc2nccs2)c2ccc3cccnc3c2O)c1 (configuration not stated)
AC50 [6]: 1.87 µM (active) | AC50 (INS1): 0.95 µM (active) | AC50 (HEK293): 14 µM (active) | EC50 (BJ [7]): 8.06 µM (active) | EC50 (BJ [8]): 6.31 µM (active) | AC50 [9]: 8.97 µM (active) | EC50 (cells [10]): 13.2 µM (active) | EC50 [11]: 20.1 µM (inconclusive) | IC50 (Exodeoxyribonuclease V): > 119 µM (inactive) | EC50 [12]: > 160 µM (inactive) | EC50 [13]: 0.796 µM (active) | EC50 (BJ [14]): 9.83 µM (active) | IC50 [15]: 107 µM (inactive) | AC50 [16]: 5.04 µM (active) | EC50 (cells [17]): > 350 µM (not active) | EC50 [18]: 6.12 µM (active) | EC50 [19]: > 180 µM (inactive) | AC50 [20]: 1.67 µM (active)

CC(=O)N1CCN(c2ccc(N/C=C3\C(=O)NC(=O)N(Cc4ccccc4)C3=O)cc2)CC1
EC50 [21]: 83.1 µM (active) | EC50 [22]: > 99 µM (inactive) | EC50 [23]: 19 µM (active) | EC50 [24]: > 300 µM (not active)

O=C(c1ccccc1Cl)N1CCN(c2ccnc3cc(Cl)ccc23)CC1
AC50 (Candida albicans [25]): 4.8 µM (active) | AC50 (Candida albicans [26]): 25.2 µM (active) | AC50 (Candida albicans [27]): 7.36 µM (active)

O=C(CSc1ncccn1)Nc1cccc(S(=O)(=O)N2CCOCC2)c1
IC50 (Hexokinase HKDC1): > 80 µM (inactive) | IC50 (Hexokinase-1): > 80 µM (inactive)
